In PubChem BioAssay AID1918998 (Molecular Pharmacology Branch, DTP, NCI, 2023):

System: 521955-158-R2-J5-PDC complex spheroid growth
Experiment: Anticancer human tumor 521955-158-R2-J5-PDC patient-derived pancreatic carcinoma cell line growth inhibition [AhR]
Details: for IC50: curve of first compound; for viability, T/C: stronger effect = lower value
Summary of the method: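 Spheroids combined tumor cells with HUVEC endothelial cells and human MSCs as stroma. AhR antagonists were paired with standard or investigational drugs, each dosed in half-log steps down from near clinical Cmax, or from 10 microM where Cmax was unknown.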
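For viability, T/C in this document: spheroids mix tumor cells with HUVEC endothelium and human MSC stroma; luminescence taken as viability surrogate after a week of drug exposure.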

`O=C(C=Cc1cccc(S(=O)(=O)Nc2ccccc2)c1)NO` + Cc1ccccc1N=Nc1ccc(NC(=O)c2ccnn2C)c(C)c1 was tested, and the IC50 (second compound 0.1 µM) was greater than 10 µM, the IC50 (second compound 0.316 µM) was 6.54 µM and the IC50 (second compound 1 µM) was greater than 10 µM. For the same compound, the IC50 (second compound 3.16 µM) was 2.92 µM, the IC50 (second compound 10 µM) was 3.55 µM and the viability, T/C (second compound 0.1 µM, first compound 0.0316 µM) was 95.4%. It also gave a viability, T/C (second compound 0.1 µM, first compound 0.1 µM) of 104%, a viability, T/C (second compound 0.1 µM, first compound 0.316 µM) of 121% and a viability, T/C (second compound 0.1 µM, first compound 1 µM) of 96%. For the same compound, the viability, T/C (second compound 0.1 µM, first compound 3.16 µM) was 72.6%, the viability, T/C (second compound 0.1 µM, first compound 10 µM) was 52% and the viability, T/C (second compound 0.316 µM, first compound 0.0316 µM) was 102%. For the same compound, the viability, T/C (second compound 0.316 µM, first compound 0.1 µM) was 115%, the viability, T/C (second compound 0.316 µM, first compound 0.316 µM) was 128% and the viability, T/C (second compound 0.316 µM, first compound 1 µM) was 89.2%. For the same compound, the viability, T/C (second compound 0.316 µM, first compound 3.16 µM) was 65.5%, the viability, T/C (second compound 0.316 µM, first compound 10 µM) was 41.5% and the viability, T/C (second compound 1 µM, first compound 0.0316 µM) was 105%. For the same compound, the viability, T/C (second compound 1 µM, first compound 0.1 µM) was 136%, the viability, T/C (second compound 1 µM, first compound 0.316 µM) was 136% and the viability, T/C (second compound 1 µM, first compound 1 µM) was 102%. It also gave a viability, T/C (second compound 1 µM, first compound 3.16 µM) of 59.5%, a viability, T/C (second compound 1 µM, first compound 10 µM) of 48.9% and a viability, T/C (second compound 3.16 µM, first compound 0.0316 µM) of 105%. It also gave a viability, T/C (second compound 3.16 µM, first compound 0.1 µM) of 116%, a viability, T/C (second compound 3.16 µM, first compound 0.316 µM) of 154% and a viability, T/C (second compound 3.16 µM, first compound 1 µM) of 93.7%. It also gave a viability, T/C (second compound 3.16 µM, first compound 3.16 µM) of 54.2%, a viability, T/C (second compound 3.16 µM, first compound 10 µM) of 39.4% and a viability, T/C (second compound 10 µM, first compound 0.0316 µM) of 147%. For the same compound, the viability, T/C (second compound 10 µM, first compound 0.1 µM) was 146%, the viability, T/C (second compound 10 µM, first compound 0.316 µM) was 129% and the viability, T/C (second compound 10 µM, first compound 1 µM) was 87.9%. The viability, T/C (second compound 10 µM, first compound 3.16 µM) was 56.6% and the viability, T/C (second compound 10 µM, first compound 10 µM) was 24.9%.
